Values quoted from earlier work as cited in patent publication US20040063658A1, “Nucleoside derivatives for treating hepatitis C virus infection” (priority 2002, published 2004).

Legend:
[1] = patients treated at currently recommended doses
[2] = system: HCV; settings: treatment of HCV with interferon, long term efficacy

In the case of `NC(=O)c1ncn([C@@H]2O[C@H](CO)[C@@H](O)[C@H]2O)n1` [Ribavirin, 1-β-D-ribofuranosyl-1H-1,2,-4-triazole-3-carboxamide], the “patients with significant hemolysis” value [1] is given as 10-20%.

In the case of interferon, the response rate [2] is given as “about 25%”.
